Source: patent US11691980B2, “Liphagal analog and multi-targeted kinase inhibitor containing liphagal or analog thereof” (TOHOKU UNIVERSITY, priority 2017, dated 2023)

How the values were obtained:
Type in all cases: biochemical
ROCK2 = target: T1, ROCK2 (Homo sapiens, UniProt O75116); experiment: mobility shift assay
T1 construct: purchased Carna Biosciences

MNK = experiment: mobility shift assay; conditions: 10 μM
PKCζ = target: T2, PKCζ (Homo sapiens, UniProt Q05513); experiment: mobility shift assay
T2 construct: purchased Carna Biosciences

HPK4 = target: T3, HPK4 (Homo sapiens, UniProt Q8NE63); experiment: mobility shift assay
T3 construct: purchased Carna Biosciences

MAP2K4 Cascade = experiment: mobility shift assay; conditions: 10 μM
MAP2K6_Cascade = target: T4, MAP2K6_Cascade (Homo sapiens, UniProt P52564); experiment: mobility shift assay
T4 construct: purchased Carna Biosciences

RSK2 = target: T5, RSK2 (Homo sapiens, UniProt P51812); experiment: mobility shift assay
T5 construct: purchased Carna Biosciences

FGFR3(K650M) = target: T6, FGFR3(K650M) (Homo sapiens, UniProt P22607, K650M); experiment: mobility shift assay
T6 construct: purchased Carna Biosciences

DDR2 = target: T7, DDR2 (Homo sapiens, UniProt Q16832); experiment: mobility shift assay
T7 construct: purchased Carna Biosciences

SGK2 = target: T8, SGK2 (Homo sapiens, UniProt Q9HBY8); experiment: mobility shift assay
T8 construct: purchased Carna Biosciences

HCK = target: T9, HCK (Homo sapiens, UniProt P08631); experiment: mobility shift assay
T9 construct: purchased Carna Biosciences
T9 sequence (P08631 whole entry): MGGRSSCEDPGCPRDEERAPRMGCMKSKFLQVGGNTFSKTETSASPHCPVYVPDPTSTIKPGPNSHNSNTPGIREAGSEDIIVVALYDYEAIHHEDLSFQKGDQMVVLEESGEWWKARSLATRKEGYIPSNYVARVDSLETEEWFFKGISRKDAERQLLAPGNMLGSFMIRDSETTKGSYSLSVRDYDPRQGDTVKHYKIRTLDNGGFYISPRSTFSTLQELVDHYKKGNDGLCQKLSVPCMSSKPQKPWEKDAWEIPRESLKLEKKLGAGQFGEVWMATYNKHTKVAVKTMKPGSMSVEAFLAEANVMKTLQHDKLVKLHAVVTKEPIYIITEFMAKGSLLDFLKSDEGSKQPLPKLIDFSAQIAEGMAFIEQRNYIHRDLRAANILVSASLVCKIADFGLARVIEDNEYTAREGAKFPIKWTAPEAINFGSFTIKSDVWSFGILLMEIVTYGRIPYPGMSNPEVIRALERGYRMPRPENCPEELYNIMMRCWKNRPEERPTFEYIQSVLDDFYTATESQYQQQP

p38α = target: T10, p38α (Homo sapiens, UniProt Q16539); experiment: mobility shift assay
T10 construct: purchased Carna Biosciences
T10 sequence (Q16539 whole entry): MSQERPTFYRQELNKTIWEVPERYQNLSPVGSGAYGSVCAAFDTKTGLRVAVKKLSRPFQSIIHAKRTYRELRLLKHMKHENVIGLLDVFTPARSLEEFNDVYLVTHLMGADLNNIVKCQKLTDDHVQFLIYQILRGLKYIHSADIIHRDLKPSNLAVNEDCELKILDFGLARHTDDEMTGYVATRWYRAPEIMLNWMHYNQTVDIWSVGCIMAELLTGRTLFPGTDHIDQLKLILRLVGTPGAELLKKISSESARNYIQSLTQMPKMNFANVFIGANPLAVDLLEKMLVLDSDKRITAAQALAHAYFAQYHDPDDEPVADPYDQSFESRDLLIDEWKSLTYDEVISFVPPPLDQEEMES

KIT(T670I) = target: T11, KIT(T670I) (Homo sapiens, UniProt P10721, T670I); experiment: mobility shift assay
T11 construct: purchased Carna Biosciences

EGFR(L858R) = target: T12, EGFR(L858R) (Homo sapiens, UniProt P00533, L858R); experiment: mobility shift assay
T12 construct: purchased Carna Biosciences

PKACα = target: T13, PKACα (Homo sapiens, UniProt P17612); experiment: mobility shift assay
T13 construct: purchased Carna Biosciences

CK2α1/β = target: T14, CK2α1/β (Homo sapiens, UniProt P68400); experiment: mobility shift assay
T14 construct: purchased Carna Biosciences

PHKG1 = target: T15, PHKG1 (Homo sapiens, UniProt Q16816); experiment: mobility shift assay
T15 construct: purchased Carna Biosciences

CLK3 = target: T16, CLK3 (Homo sapiens, UniProt P49761); experiment: mobility shift assay
T16 construct: purchased Carna Biosciences

Etk2 = target: T17, Etk2 (Homo sapiens, UniProt P28482); experiment: mobility shift assay
T17 construct: purchased Carna Biosciences

TSSK1 = target: T18, TSSK1 (Homo sapiens, UniProt Q9BXA7); experiment: mobility shift assay
T18 construct: purchased Carna Biosciences

EPHA8 = target: T19, EPHA8 (Homo sapiens, UniProt P29322); experiment: mobility shift assay
T19 construct: purchased Carna Biosciences

EPHA3 = target: T20, EPHA3 (Homo sapiens, UniProt P29320); experiment: mobility shift assay
T20 construct: purchased Carna Biosciences

SRC = target: T21, SRC (Homo sapiens, UniProt P12931); experiment: mobility shift assay
T21 construct: purchased Carna Biosciences

ALK(F1174L) = target: T22, ALK(F1174L) (Homo sapiens, UniProt Q9UM73, F1174L); experiment: mobility shift assay
T22 construct: purchased Carna Biosciences

AKT1 = target: T23, AKT1 (Homo sapiens, UniProt P31749); experiment: mobility shift assay
T23 construct: purchased Carna Biosciences

LOK = target: T24, LOK (Homo sapiens, UniProt O94804); experiment: mobility shift assay
T24 construct: purchased Carna Biosciences
T24 sequence (O94804 whole entry): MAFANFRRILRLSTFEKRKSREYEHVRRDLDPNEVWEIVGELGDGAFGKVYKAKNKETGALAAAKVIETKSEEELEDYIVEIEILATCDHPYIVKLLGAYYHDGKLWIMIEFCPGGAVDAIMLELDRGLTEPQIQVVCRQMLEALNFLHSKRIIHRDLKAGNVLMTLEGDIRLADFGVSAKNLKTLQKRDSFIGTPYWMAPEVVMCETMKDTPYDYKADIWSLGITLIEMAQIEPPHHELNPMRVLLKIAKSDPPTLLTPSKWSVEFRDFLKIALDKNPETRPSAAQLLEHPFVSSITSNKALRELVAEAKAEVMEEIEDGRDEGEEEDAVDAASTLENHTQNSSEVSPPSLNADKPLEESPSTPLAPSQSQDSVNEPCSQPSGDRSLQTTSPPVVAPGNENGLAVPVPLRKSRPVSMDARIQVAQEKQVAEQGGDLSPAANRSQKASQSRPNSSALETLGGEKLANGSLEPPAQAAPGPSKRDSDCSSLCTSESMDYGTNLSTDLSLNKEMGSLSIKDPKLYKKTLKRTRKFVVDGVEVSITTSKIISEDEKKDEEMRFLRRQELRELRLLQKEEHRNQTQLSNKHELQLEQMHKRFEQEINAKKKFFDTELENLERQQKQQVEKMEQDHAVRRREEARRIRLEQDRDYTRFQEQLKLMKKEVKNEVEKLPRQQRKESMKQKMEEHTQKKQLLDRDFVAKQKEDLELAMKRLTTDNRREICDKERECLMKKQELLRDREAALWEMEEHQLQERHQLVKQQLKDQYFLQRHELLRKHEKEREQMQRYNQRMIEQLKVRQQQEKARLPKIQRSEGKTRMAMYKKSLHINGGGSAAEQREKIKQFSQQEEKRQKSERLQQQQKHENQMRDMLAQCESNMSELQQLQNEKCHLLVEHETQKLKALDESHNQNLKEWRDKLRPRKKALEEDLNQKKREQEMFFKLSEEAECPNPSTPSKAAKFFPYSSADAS

ALK(L1152lnsT) = experiment: mobility shift assay; conditions: 10 μM
PEK = target: T25, PEK (Homo sapiens, UniProt Q9NZJ5); experiment: IMAP Assay
T25 construct: purchased Carna Biosciences

LCK = target: T26, LCK (Homo sapiens, UniProt P06239); experiment: mobility shift assay
T26 construct: purchased Carna Biosciences

BRSK1 = target: T27, BRSK1 (Homo sapiens, UniProt Q8TDC3); experiment: mobility shift assay
T27 construct: purchased Carna Biosciences

MET = target: T28, MET (Homo sapiens, UniProt P08581); experiment: mobility shift assay
T28 construct: purchased Carna Biosciences

JAK3 = target: T29, JAK3 (Homo sapiens, UniProt P52333); experiment: mobility shift assay
T29 construct: purchased Carna Biosciences

TRK1 = experiment: mobility shift assay; conditions: 10 μM
CK1γ2 = target: T30, CK1γ2 (Homo sapiens, UniProt P78368); experiment: mobility shift assay
T30 construct: purchased Carna Biosciences

FYN(isoform a) = target: T31, FYN(isoform a) (Homo sapiens, UniProt P06241); experiment: mobility shift assay
T31 construct: purchased Carna Biosciences

CaMK2δ = target: T32, CaMK2δ (Homo sapiens, UniProt Q13557); experiment: mobility shift assay
T32 construct: purchased Carna Biosciences
T32 sequence (Q13557 whole entry): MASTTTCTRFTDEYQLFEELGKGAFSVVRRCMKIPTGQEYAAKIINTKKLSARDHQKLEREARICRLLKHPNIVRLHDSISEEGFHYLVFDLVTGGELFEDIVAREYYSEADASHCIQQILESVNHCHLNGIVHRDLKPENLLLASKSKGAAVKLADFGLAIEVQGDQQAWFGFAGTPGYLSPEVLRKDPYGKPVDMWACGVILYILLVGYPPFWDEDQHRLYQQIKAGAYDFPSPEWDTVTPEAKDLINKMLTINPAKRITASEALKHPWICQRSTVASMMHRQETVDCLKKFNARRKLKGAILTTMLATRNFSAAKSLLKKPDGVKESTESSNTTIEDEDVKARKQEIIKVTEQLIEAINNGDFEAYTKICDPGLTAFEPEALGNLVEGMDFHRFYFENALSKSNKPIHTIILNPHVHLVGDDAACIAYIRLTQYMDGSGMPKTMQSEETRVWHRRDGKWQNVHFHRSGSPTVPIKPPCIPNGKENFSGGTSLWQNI

DDR1 = target: T33, DDR1 (Homo sapiens, UniProt Q08345); experiment: mobility shift assay
T33 construct: purchased Carna Biosciences

PAK4 = target: T34, PAK4 (Homo sapiens, UniProt O96013); experiment: mobility shift assay
T34 construct: purchased Carna Biosciences

EFHB2 = target: T35, EFHB2 (Homo sapiens, UniProt P29323); experiment: mobility shift assay
T35 construct: purchased Carna Biosciences

CGK2 = target: T36, CGK2 (Homo sapiens, UniProt Q13237); experiment: mobility shift assay
T36 construct: purchased Carna Biosciences

CK1ε = target: T37, CK1ε (Homo sapiens, UniProt P49674); experiment: mobility shift assay
T37 construct: purchased Carna Biosciences
T37 sequence (P49674 whole entry): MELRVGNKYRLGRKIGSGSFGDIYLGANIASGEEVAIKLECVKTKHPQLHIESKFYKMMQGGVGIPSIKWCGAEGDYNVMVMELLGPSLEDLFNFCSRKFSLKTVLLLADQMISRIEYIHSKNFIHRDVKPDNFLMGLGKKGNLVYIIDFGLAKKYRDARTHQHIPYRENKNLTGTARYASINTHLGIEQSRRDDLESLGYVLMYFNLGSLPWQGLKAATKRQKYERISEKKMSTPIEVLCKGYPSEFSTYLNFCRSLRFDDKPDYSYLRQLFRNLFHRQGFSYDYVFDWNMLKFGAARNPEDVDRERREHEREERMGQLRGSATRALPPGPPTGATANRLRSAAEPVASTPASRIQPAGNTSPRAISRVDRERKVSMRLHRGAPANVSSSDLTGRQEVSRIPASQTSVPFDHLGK

GSK3β = target: T38, GSK3β (Homo sapiens, UniProt P49841); experiment: mobility shift assay
T38 construct: purchased Carna Biosciences

PLK2 = target: T39, PLK2 (Homo sapiens, UniProt Q9NYY3); experiment: IMAP Assay
T39 construct: purchased Carna Biosciences
T39 sequence (Q9NYY3 whole entry): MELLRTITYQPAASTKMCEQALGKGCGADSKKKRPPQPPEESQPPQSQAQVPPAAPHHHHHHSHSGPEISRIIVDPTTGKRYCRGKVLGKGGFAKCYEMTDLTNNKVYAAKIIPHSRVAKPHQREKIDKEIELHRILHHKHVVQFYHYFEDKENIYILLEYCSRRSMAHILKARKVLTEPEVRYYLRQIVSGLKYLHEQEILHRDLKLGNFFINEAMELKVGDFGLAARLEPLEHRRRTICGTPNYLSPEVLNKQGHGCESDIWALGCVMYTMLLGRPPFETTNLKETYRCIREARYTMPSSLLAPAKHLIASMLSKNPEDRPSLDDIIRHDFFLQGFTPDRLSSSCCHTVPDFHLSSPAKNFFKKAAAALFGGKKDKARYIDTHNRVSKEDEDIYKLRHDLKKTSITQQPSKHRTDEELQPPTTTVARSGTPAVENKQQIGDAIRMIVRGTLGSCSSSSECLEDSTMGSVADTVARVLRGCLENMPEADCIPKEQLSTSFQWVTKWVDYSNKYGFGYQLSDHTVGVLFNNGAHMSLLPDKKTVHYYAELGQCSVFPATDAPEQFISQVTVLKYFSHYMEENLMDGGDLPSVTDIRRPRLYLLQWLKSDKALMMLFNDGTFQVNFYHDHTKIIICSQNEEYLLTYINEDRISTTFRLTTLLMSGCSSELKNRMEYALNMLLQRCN

T1 sequence (O75116 whole entry): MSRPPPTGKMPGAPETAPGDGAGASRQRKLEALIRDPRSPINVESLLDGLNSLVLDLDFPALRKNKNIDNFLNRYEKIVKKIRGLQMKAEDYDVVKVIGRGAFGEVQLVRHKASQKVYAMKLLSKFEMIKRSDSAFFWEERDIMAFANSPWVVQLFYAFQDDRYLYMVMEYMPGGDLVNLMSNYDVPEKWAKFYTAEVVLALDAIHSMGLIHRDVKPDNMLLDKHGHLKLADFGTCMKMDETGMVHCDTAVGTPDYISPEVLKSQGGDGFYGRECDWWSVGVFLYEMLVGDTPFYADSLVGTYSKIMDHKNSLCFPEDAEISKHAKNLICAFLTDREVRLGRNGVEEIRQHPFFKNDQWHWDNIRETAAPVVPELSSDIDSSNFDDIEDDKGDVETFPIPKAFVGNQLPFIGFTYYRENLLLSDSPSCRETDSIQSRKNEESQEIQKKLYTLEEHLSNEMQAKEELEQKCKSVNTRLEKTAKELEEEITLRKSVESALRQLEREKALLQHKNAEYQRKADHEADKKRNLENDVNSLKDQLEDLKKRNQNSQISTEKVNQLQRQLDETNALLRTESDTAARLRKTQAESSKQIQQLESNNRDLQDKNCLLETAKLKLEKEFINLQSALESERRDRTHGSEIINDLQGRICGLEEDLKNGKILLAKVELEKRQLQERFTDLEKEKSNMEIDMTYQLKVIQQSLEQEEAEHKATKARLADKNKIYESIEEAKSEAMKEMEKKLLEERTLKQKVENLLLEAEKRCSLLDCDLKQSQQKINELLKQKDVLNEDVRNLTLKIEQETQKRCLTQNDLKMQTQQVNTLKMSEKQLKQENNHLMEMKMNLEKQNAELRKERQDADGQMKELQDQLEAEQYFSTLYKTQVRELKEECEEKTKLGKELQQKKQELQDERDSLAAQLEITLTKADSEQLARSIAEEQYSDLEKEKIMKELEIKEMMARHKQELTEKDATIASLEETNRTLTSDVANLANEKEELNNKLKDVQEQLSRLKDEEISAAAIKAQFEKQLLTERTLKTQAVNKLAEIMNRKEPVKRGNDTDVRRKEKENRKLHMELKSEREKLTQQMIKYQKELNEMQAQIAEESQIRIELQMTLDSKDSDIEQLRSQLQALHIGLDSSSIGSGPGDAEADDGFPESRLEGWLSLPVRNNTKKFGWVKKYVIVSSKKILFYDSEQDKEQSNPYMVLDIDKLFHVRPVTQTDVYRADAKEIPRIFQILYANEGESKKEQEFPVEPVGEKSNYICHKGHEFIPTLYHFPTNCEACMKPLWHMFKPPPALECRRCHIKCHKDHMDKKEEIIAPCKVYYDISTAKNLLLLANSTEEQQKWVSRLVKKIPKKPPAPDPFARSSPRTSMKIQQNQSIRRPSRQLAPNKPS

With C[C@@H]1CC[C@H]2C(C)(C)CCC[C@]2(C)c2c1oc1c(C=O)c(O)c(O)cc21 [LG-1, liphagal] the inhibition at 10 µM (ROCK2) was 2%, the “% Inhibition” value (MNK) was 0.0% and the inhibition at 10 µM (PKCζ) was -7.2%. The inhibition at 10 µM (HPK4) was 18.2%, the “% Inhibition” value (MAP2K4 Cascade) was 9.1% and the inhibition at 10 µM (MAP2K6_Cascade) was 19.9%. The inhibition at 10 µM (RSK2) was 14.5%, the inhibition at 10 µM (FGFR3(K650M)) was -3.6% and the inhibition at 10 µM (DDR2) was 42.5%. For the same molecule, the inhibition at 10 µM (SGK2) was 9.3%, the inhibition at 10 µM (HCK) was 4.8% and the inhibition at 10 µM (p38α) was 0.1%. It also gave an inhibition at 10 µM (KIT(T670I)) of 5.4%, an inhibition at 10 µM (EGFR(L858R)) of 4.2% and an inhibition at 10 µM (PKACα) of 2.3%. The inhibition at 10 µM (CK2α1/β) was -0.9%, the inhibition at 10 µM (PHKG1) was 21.7% and the inhibition at 10 µM (CLK3) was 5.7%. It also gave an inhibition at 10 µM (Etk2) of 6.2%, an inhibition at 10 µM (TSSK1) of 4.1% and an inhibition at 10 µM (EPHA8) of 0.8%. It also gave an inhibition at 10 µM (EPHA3) of -2.8%, an inhibition at 10 µM (SRC) of -7.1% and an inhibition at 10 µM (ALK(F1174L)) of -1.8%. For the same molecule, the inhibition at 10 µM (AKT1) was 3.1%, the inhibition at 10 µM (LOK) was 15.8% and the “% Inhibition” value (ALK(L1152lnsT)) was −0.2%. For the same molecule, the inhibition at 10 µM (PEK) was 13.2%, the inhibition at 10 µM (LCK) was 11% and the inhibition at 10 µM (BRSK1) was 9.2%. The inhibition at 10 µM (MET) was -1.3%, the inhibition at 10 µM (JAK3) was -7.2% and the “% Inhibition” value (TRK1) was −0.5%. For the same molecule, the inhibition at 10 µM (CK1γ2) was -2.8%, the inhibition at 10 µM (FYN(isoform a)) was 0.5% and the inhibition at 10 µM (CaMK2δ) was 7.7%. It also gave an inhibition at 10 µM (DDR1) of 60.5%, an inhibition at 10 µM (PAK4) of -24.7% and an inhibition at 10 µM (EFHB2) of 5.4%. The inhibition at 10 µM (CGK2) was 7.3%, the inhibition at 10 µM (CK1ε) was 37.7% and the inhibition at 10 µM (GSK3β) was 25.3%. The inhibition at 10 µM (PLK2) was 19.7%.
